ChEMBL document CHEMBL1201862, “PubChem BioAssay data set” (2004)
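Assay format: 96-well plates, 48-hour exposure. GI50 marks 50% less growth.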 Active and inactive are the calls of the source. Cut-off read from the data, not from the text of the source: active = GI50 up to about 1.1 µM and inactive = higher.

Assays:
Assay in all cases: NCI anticancer screen, dose series, 48 h
[1] = test system: A549
[2] = test system: MDA-MB-231
[3] = test system: COLO 205
[4] = test system: SK-MEL-28
[5] = test system: IGROV-1
[6] = test system: LOX IMVI
[7] = test system: MDA-N
[8] = test system: 786-0
[9] = test system: SK-MEL-2
[10] = test system: NCI-H23
[11] = test system: HCT-116
[12] = test system: TK-10
[13] = test system: SK-MEL-5
[14] = test system: T47D
[15] = test system: SF-295
[16] = test system: SW-620
[17] = test system: OVCAR-8
[18] = test system: PC-3
[19] = test system: HL-60

Measured: GI50

COc1ccc(/C=N/NC(=O)c2ccccc2Nc2ccccc2C(=O)N/N=C/c2ccc(OC)cc2)cc1
inactive: [1] > 100 µM | [2] 65.6 µM | [3] > 100 µM | [4] > 100 µM | [5] > 100 µM | [6] > 100 µM | [7] > 100 µM | [8] > 100 µM | [9] > 100 µM | [10] > 100 µM | [11] > 100 µM | [12] > 100 µM | [13] > 100 µM | [14] > 100 µM | [15] > 100 µM | [16] > 100 µM | [17] > 100 µM | [18] > 100 µM

COc1c(Cl)nc2ccccc2c1N=[N+]=[N-]
inactive: [1] > 100 µM | [2] 77.1 µM | [3] > 100 µM | [4] > 100 µM | [5] 49.5 µM | [6] 48.6 µM | [7] > 100 µM | [8] > 100 µM | [10] 92.7 µM | [19] 53.3 µM | [11] 52.7 µM | [12] 70 µM | [13] 40.5 µM | [14] 85.7 µM | [15] > 100 µM | [16] > 100 µM | [18] 46 µM

C=CCC1C2CCC(O[Si](C(C)C)(C(C)C)C(C)C)(C(C(=O)OC)C2)C1O (stereo unspecified)
inactive: [1] 32.9 µM | [2] > 100 µM | [3] > 100 µM | [4] 65.8 µM | [5] 69.2 µM | [7] > 100 µM | [8] 17.2 µM | [9] 41.9 µM | [10] 23.5 µM | [19] 13.3 µM | [11] 19.5 µM | [12] 14.4 µM | [13] 53 µM | [14] 38.8 µM | [15] 23.4 µM | [16] > 100 µM | [17] > 100 µM | [18] 67.5 µM

COc1ccc(C(=O)N2CCc3c([nH]c4ccccc34)C2C(=O)O)o1 (stereo unspecified)
inactive: [1] > 10 µM | [2] > 10 µM | [3] > 10 µM | [4] > 10 µM | [5] > 10 µM | [7] > 10 µM | [8] > 10 µM | [19] > 10 µM | [11] > 10 µM | [12] > 10 µM | [13] > 10 µM | [14] > 10 µM | [15] > 10 µM | [16] > 10 µM | [17] > 10 µM | [18] > 10 µM

CN(Cc1cnc2c(N)nc(N)nc2n1)c1ccc(Cl)cc1
inactive: [2] > 100 µM | [3] > 100 µM | [5] 13.7 µM | [7] > 100 µM | [9] 29 µM | [10] 34 µM | [19] > 100 µM | [12] 38.7 µM | [13] > 100 µM | [14] 52.5 µM | [15] 72.1 µM | [16] > 100 µM | [17] 21.5 µM | [18] 65.5 µM

COc1cc(C(=O)C2C(=O)c3ccccc3C2C2(O)c3ccccc3CC2C(O)c2cc(OC)c(OC)c(OC)c2)cc(OC)c1OC (stereo unspecified)
inactive: [1] > 100 µM | [2] 94.2 µM | [3] > 100 µM | [4] > 100 µM | [5] > 100 µM | [6] > 100 µM | [7] > 100 µM | [8] > 100 µM | [9] > 100 µM | [10] > 100 µM | [11] > 100 µM | [12] > 100 µM | [13] > 100 µM | [14] > 100 µM | [15] 74.6 µM | [16] > 100 µM | [17] 62.4 µM | [18] > 100 µM
